Molecular target: Cannabinoid receptor 1 (Mus musculus, UniProt P47746)
Experiment: [35S]GTPγS Binding Assay
Experimental: For receptor signaling, membranes (10 μg protein) from either ICR mouse cerebellum mice (6-8 weeks old; Enviga International, Indianapolis, Indiana, United States of America) or HEK cells stably expressing CB1 receptor were preincubated in assay buffer for 10 min with 3 units/ml adenosine deaminase then incubated for 60 min at 30° C. with 30 μM GDP and 0.1 nM [35S]GTPγS (Perkin Elmer Life Sciences, Boston, Massachusetts, United States of America). Non-specific binding was determined by adding 30 μM unlabeled GTPγS.

Sequence of Cannabinoid receptor 1 (P47746 whole entry): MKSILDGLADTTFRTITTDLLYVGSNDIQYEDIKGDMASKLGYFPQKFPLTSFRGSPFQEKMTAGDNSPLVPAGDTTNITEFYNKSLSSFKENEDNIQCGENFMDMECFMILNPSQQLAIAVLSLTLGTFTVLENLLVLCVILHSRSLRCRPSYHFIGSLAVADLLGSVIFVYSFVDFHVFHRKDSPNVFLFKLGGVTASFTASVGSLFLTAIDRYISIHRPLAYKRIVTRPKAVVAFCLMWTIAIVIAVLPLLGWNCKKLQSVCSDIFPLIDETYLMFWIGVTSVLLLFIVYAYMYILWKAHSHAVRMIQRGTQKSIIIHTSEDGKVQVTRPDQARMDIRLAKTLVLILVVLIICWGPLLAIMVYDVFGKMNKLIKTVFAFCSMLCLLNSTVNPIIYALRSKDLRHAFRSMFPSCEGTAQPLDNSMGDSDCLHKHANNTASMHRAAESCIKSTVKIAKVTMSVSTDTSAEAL

O=c1c(NCCc2cccc(Cl)c2)c(Nc2ccc(Cl)cc2)c1=O [US20260062376, Compound 7] and Cc1cccc(CCNc2c(Nc3ccc(Cl)cc3)c(=O)c2=O)c1 [US20260062376, Compound 14] are within 1.5-fold of each other in IC50: 229 nM for the first, 166 nM for the second.

Going from O=c1c(NCCc2ccc(Cl)cc2)c(Nc2ccc(Cl)cc2)c1=O [US20260062376, Compound 13] to Cc1ccc(CCNc2c(Nc3ccc(Cl)cc3)c(=O)c2=O)cc1 [US20260062376, Compound 15], the IC50 falls from 275 nM to 81.3 nM (3.4-fold).

Compared with O=c1c(NCCc2ccccc2F)c(Nc2ccc(Cl)cc2)c1=O [US20260062376, Compound 24], Cc1ccccc1CCNc1c(Nc2ccc(Cl)cc2)c(=O)c1=O [US20260062376, Compound 35] is 4.1-fold higher in IC50: 661 nM for the first, 2690 nM for the second. The first is the more potent here.

Compared with O=c1c(NCCc2cccc(F)c2)c(Nc2ccc(Cl)cc2)c1=O [US20260062376, Compound 25], O=c1c(NCCc2cccc(O)c2)c(Nc2ccc(Cl)cc2)c1=O [US20260062376, Compound 43] is 20-fold higher in IC50: 240 nM for the first, 4790 nM for the second.

First: CN(C)c1cccc(CCNc2c(Nc3ccc(Cl)cc3)c(=O)c2=O)c1 [US20260062376, Compound 26]
Second: CN(C)c1ccc(CCNc2c(Nc3ccc(Cl)cc3)c(=O)c2=O)cc1 [US20260062376, Compound 27]
The IC50 of the first is 27-fold higher: 1100 nM for the first, 40.7 nM for the second. The second is the more potent here.

O=c1c(NCCc2ccccn2)c(Nc2ccc(Cl)cc2)c1=O [US20260062376, Compound 36] and O=c1c(NCCc2cccs2)c(Nc2ccc(Cl)cc2)c1=O [US20260062376, Compound 39] are within 1.5-fold of each other in IC50: 1780 nM for the first, 1350 nM for the second.

Going from O=c1c(NCCc2ccc(Br)cc2)c(Nc2ccc(Cl)cc2)c1=O [US20260062376, Compound 38] to CCN(CC)c1ccc(CCNc2c(Nc3ccc(Cl)cc3)c(=O)c2=O)cc1 [US20260062376, Compound 48], the IC50 falls from 871 nM to 468 nM (1.9-fold). The second is the more potent here.

Compared with O=c1c(NCCc2ccc(Cl)c(Cl)c2)c(Nc2ccc(Cl)cc2)c1=O [US20260062376, Compound 41], O=c1c(NCCc2ccc(Cl)cc2Cl)c(Nc2ccc(Cl)cc2)c1=O [US20260062376, Compound 44] is 1.8-fold higher in IC50: 295 nM for the first, 525 nM for the second.

Cc1ccc(CCNc2c(Nc3ccc(Cl)cc3)c(=O)c2=O)cc1C [US20260062376, Compound 42] was tested, and the IC50 was 331 nM.

Reference: BindingDB's records for patent US20260062376 (Research Triangle Institute, 2026)
